Reference: patent publication US9204639B2, “Pesticide preparation and process for producing the same” (BAYER INTELLECTUAL PROPERTY GMBH, priority 2011, dated 2015)
Converted amounts (≈) assume the structure as drawn.

Columns and labels:
[1] = format: physicochemical
Experimental: To 31.0 g of tefuryltrione and 11.5 g of diphenylamine (equivalent mol to tefuryltrione), 10 mL of toluene was added and refluxed under heating at 90° C. for 1 hour. […] The melting point of the obtained compound was measured using a DSC (Differential Scanning calorimetry) and compared with those of the starting materials (Table 1).
The solubilities of the pesticide active ingredients in toluene and a toluene/isooctane mixture liquid (80/20, v/v) at room temperature were determined (Table 2).

[2] = cited from earlier work

CS(=O)(=O)c1ccc(C(=O)C2C(=O)CCCC2=O)c(Cl)c1COCC1CCCO1 (stereo not shown) [Tefuryltrione, tefuryltrione]
Solubility, Toluene [1]: 97.8 g/L (≈ 221 mM) | Solubility, Toluene/isooctane mixture liquid (80/20, v/v) [1]: 49.4 g/L (≈ 112 mM)

c1ccc(-c2ccccc2)cc1 [biphenyl]
Water solubility [2]: 7 ppm

c1ccc(C(c2ccccc2)c2ccccc2)cc1 [triphenylmethane]
Water solubility (in words) [2]: water insoluble
